System: patients with advanced solid tumours
Assay: Solid tumour dose-escalation study: safety and tolerability (AEs, DLTs)
Description: Conducted at two UK centres and one in Japan. Dose escalation followed a rolling six design.[14] Patients received a single dose on Day 1 during Cycle 0, followed by a 3-day washout period, after which multiple dosing was initiated. Cycle 1 was a 21-day period from the first dose of multiple dosing.
The CTCAE (version 4.0) was utilised to grade all AE events.
AEs were summarised by Medical Dictionary for Regulatory Activities (MedDRA) system organ class, MedDRA preferred term and CTCAE grade. Summary statistics of mean, median, standard deviation, minimum, maximum and number of observations were used.

N[C@@H]1CCCN(c2c(/C=C3\SC(=O)NC3=O)cccc2-c2ccccc2)C1 [AZD1208]
Abdominal pain (all-grade AE) (120 mg, n = 3): 0 (0.0) n (%)
Anaemia (all-grade AE) (120 mg, n = 3): 3 (100.0) n (%)
Constipation (all-grade AE) (120 mg, n = 3): 0 (0.0) n (%)
Decreased appetite (all-grade AE) (120 mg, n = 3): 1 (33.3) n (%)
Diarrhoea (all-grade AE) (120 mg, n = 3): 2 (66.7) n (%)
Dry skin (all-grade AE) (120 mg, n = 3): 0 (0.0) n (%)
Dyspnoea (all-grade AE) (120 mg, n = 3): 0 (0.0) n (%)
Fatigue (all-grade AE) (120 mg, n = 3): 0 (0.0) n (%)
GGT increased (all-grade AE) (120 mg, n = 3): 0 (0.0) n (%)
Hyperglycaemia (all-grade AE) (120 mg, n = 3): 1 (33.3) n (%)
Hypoalbuminaemia (all-grade AE) (120 mg, n = 3): 1 (33.3) n (%)
Hypokalaemia (all-grade AE) (120 mg, n = 3): 0 (0.0) n (%)
Hyponatraemia (all-grade AE) (120 mg, n = 3): 0 (0.0) n (%)
Insomnia (all-grade AE) (120 mg, n = 3): 0 (0.0) n (%)
Musculoskeletal chest pain (all-grade AE) (120 mg, n = 3): 0 (0.0) n (%)
Nausea (all-grade AE) (120 mg, n = 3): 1 (33.3) n (%)
Patients with any AE (all-grade AE) (120 mg, n = 3): 3 (100.0) n (%)
Platelet count decreased (all-grade AE) (120 mg, n = 3): 2 (66.7) n (%)
Pyrexia (all-grade AE) (120 mg, n = 3): 0 (0.0) n (%)
Thrombocytopenia (all-grade AE) (120 mg, n = 3): 0 (0.0) n (%)
Vomiting (all-grade AE) (120 mg, n = 3): 0 (0.0) n (%)
White blood cell count decreased (all-grade AE) (120 mg, n = 3): 2 (66.7) n (%)
Patients requiring dose interruptions because of AEs (240 mg): 2 n
Patients with CTCAE grade ≥3 AEs causally related to AZD1208 (240 mg (anaemia, alanine transaminase increased, GGT increased)): 3 n
Abdominal pain (all-grade AE) (240 mg, n = 7): 3 (42.9) n (%)
Anaemia (all-grade AE) (240 mg, n = 7): 4 (57.1) n (%)
Constipation (all-grade AE) (240 mg, n = 7): 0 (0.0) n (%)
DLT detail, action taken (240 mg, n = 7): GGT increased, drug interrupted
Decreased appetite (all-grade AE) (240 mg, n = 7): 3 (42.9) n (%)
Diarrhoea (all-grade AE) (240 mg, n = 7): 5 (71.4) n (%)
Dry skin (all-grade AE) (240 mg, n = 7): 3 (42.9) n (%)
Dyspnoea (all-grade AE) (240 mg, n = 7): 1 (14.3) n (%)
Fatigue (all-grade AE) (240 mg, n = 7): 2 (28.6) n (%)
GGT increased (all-grade AE) (240 mg, n = 7): 2 (28.6) n (%)
Hyperglycaemia (all-grade AE) (240 mg, n = 7): 0 (0.0) n (%)
Hypoalbuminaemia (all-grade AE) (240 mg, n = 7): 2 (28.6) n (%)
Hypokalaemia (all-grade AE) (240 mg, n = 7): 0 (0.0) n (%)
Hyponatraemia (all-grade AE) (240 mg, n = 7): 0 (0.0) n (%)
Insomnia (all-grade AE) (240 mg, n = 7): 1 (14.3) n (%)
Musculoskeletal chest pain (all-grade AE) (240 mg, n = 7): 0 (0.0) n (%)
Nausea (all-grade AE) (240 mg, n = 7): 6 (85.7) n (%)
Patients with any AE (all-grade AE) (240 mg, n = 7): 7 (100.0) n (%)
Platelet count decreased (all-grade AE) (240 mg, n = 7): 2 (28.6) n (%)
Pyrexia (all-grade AE) (240 mg, n = 7): 1 (14.3) n (%)
Thrombocytopenia (all-grade AE) (240 mg, n = 7): 0 (0.0) n (%)
Vomiting (all-grade AE) (240 mg, n = 7): 6 (85.7) n (%)
White blood cell count decreased (all-grade AE) (240 mg, n = 7): 3 (42.9) n (%)
Patients requiring dose interruptions because of AEs (360 mg): 3 n
Patients with CTCAE grade ≥3 AEs causally related to AZD1208 (360 mg (lymphocyte decreased)): 1 n
Abdominal pain (all-grade AE) (360 mg, n = 6): 2 (33.3) n (%)
Anaemia (all-grade AE) (360 mg, n = 6): 2 (33.3) n (%)
Constipation (all-grade AE) (360 mg, n = 6): 3 (50.0) n (%)
Decreased appetite (all-grade AE) (360 mg, n = 6): 2 (33.3) n (%)
Diarrhoea (all-grade AE) (360 mg, n = 6): 5 (83.3) n (%)
Dry skin (all-grade AE) (360 mg, n = 6): 1 (16.7) n (%)
Dyspnoea (all-grade AE) (360 mg, n = 6): 2 (33.3) n (%)
Fatigue (all-grade AE) (360 mg, n = 6): 3 (50.0) n (%)
GGT increased (all-grade AE) (360 mg, n = 6): 1 (16.7) n (%)
Hyperglycaemia (all-grade AE) (360 mg, n = 6): 1 (16.7) n (%)
Hypoalbuminaemia (all-grade AE) (360 mg, n = 6): 2 (33.3) n (%)
Hypokalaemia (all-grade AE) (360 mg, n = 6): 0 (0.0) n (%)
Hyponatraemia (all-grade AE) (360 mg, n = 6): 1 (16.7) n (%)
Insomnia (all-grade AE) (360 mg, n = 6): 1 (16.7) n (%)
Musculoskeletal chest pain (all-grade AE) (360 mg, n = 6): 2 (33.3) n (%)
Nausea (all-grade AE) (360 mg, n = 6): 3 (50.0) n (%)
Patients with any AE (all-grade AE) (360 mg, n = 6): 6 (100.0) n (%)
Platelet count decreased (all-grade AE) (360 mg, n = 6): 1 (16.7) n (%)
Pyrexia (all-grade AE) (360 mg, n = 6): 3 (50.0) n (%)
Thrombocytopenia (all-grade AE) (360 mg, n = 6): 2 (33.3) n (%)
Vomiting (all-grade AE) (360 mg, n = 6): 1 (16.7) n (%)
White blood cell count decreased (all-grade AE) (360 mg, n = 6): 1 (16.7) n (%)
Patients requiring dose interruptions because of AEs (540 mg): 6 n
Patients with CTCAE grade ≥3 AEs causally related to AZD1208 (540 mg (vomiting, fatigue, lethargy)): 2 n
Abdominal pain (all-grade AE) (540 mg, n = 7): 2 (28.6) n (%)
Anaemia (all-grade AE) (540 mg, n = 7): 4 (57.1) n (%)
Constipation (all-grade AE) (540 mg, n = 7): 0 (0.0) n (%)
DLT detail, action taken (540 mg, n = 7): Vomiting, drug permanently discontinued
Decreased appetite (all-grade AE) (540 mg, n = 7): 4 (57.1) n (%)
Diarrhoea (all-grade AE) (540 mg, n = 7): 6 (85.7) n (%)
Dry skin (all-grade AE) (540 mg, n = 7): 2 (28.6) n (%)
Dyspnoea (all-grade AE) (540 mg, n = 7): 1 (14.3) n (%)
Fatigue (all-grade AE) (540 mg, n = 7): 3 (42.9) n (%)
GGT increased (all-grade AE) (540 mg, n = 7): 2 (28.6) n (%)
Hyperglycaemia (all-grade AE) (540 mg, n = 7): 4 (57.1) n (%)
Hypoalbuminaemia (all-grade AE) (540 mg, n = 7): 1 (14.3) n (%)
Hypokalaemia (all-grade AE) (540 mg, n = 7): 2 (28.6) n (%)
Hyponatraemia (all-grade AE) (540 mg, n = 7): 3 (42.9) n (%)
Insomnia (all-grade AE) (540 mg, n = 7): 1 (14.3) n (%)
Musculoskeletal chest pain (all-grade AE) (540 mg, n = 7): 1 (14.3) n (%)
Nausea (all-grade AE) (540 mg, n = 7): 7 (100.0) n (%)
Patients with any AE (all-grade AE) (540 mg, n = 7): 7 (100.0) n (%)
Platelet count decreased (all-grade AE) (540 mg, n = 7): 2 (28.6) n (%)
Pyrexia (all-grade AE) (540 mg, n = 7): 0 (0.0) n (%)
Thrombocytopenia (all-grade AE) (540 mg, n = 7): 1 (14.3) n (%)
Vomiting (all-grade AE) (540 mg, n = 7): 5 (71.4) n (%)

— publication PMC5988656, “Phase I studies of AZD1208, a proviral integration Moloney virus kinase inhibitor in solid and haematological cancers” (British Journal of Cancer, 2018)
